# Results as given in US9096833B2, “Methods of treating pre-malignant ductal cancer with autophagy inhibitors” (GEORGE MASON UNIVERSITY, priority 2009, dated 2015).
# What was measured:
# [1] = test system: DCIS malignant precursor cells
# Method: Tissue collection. […] Gross tissue pathology at the time of procurement was assessed by a board certified pathologist. Tissue containing DCIS lesions was excised for further macrodissection and rinsed in sterile phosphate buffered saline to remove sentinel lymph node dye. Using sterile technique, ductal tissue was dissected from surrounding breast adipose/fibrous tissue. The ductal tissue was rinsed in serum free DMEM/F12 medium (Invitrogen, Carlsbad, Calif., USA) supplemented with human recombinant EGF (10 ng/mL; Cell Signaling Technology, Danvers, Mass., USA or Millipore, Billerica, Mass., USA), insulin (10 μg/mL; Roche, Indianapolis, Ind., USA), streptomycin sulfate (100 μg/mL; Sigma, St. Louis, Mo., USA) and gentamicin sulfate (20 μg/mL; Sigma) prior to distribution in culture flasks (MidSci, St. Louis, Mo., USA). Ductal tissue was allowed to attach to the culture surface and observed daily for cellular outgrowths. Non-adherent organoids were removed from the culture flask.
# Organoid ex vivo culture. Dissected breast ductal tissue was grown in 115 cm^2 TPP reclosable flasks (MidSci) or 10 cm^2 culture tubes (MidSci) in serum free DMEM/F12 medium supplemented with human recombinant EGF (10 ng/mL), insulin (10 μg/mL), streptomycin sulfate (100 μg/mL) and gentamicin sulfate (20 μg/mL), with or without 0.36% (v/v) murine Engelbreth-Holm-Swarm (EHS) derived, growth factor reduced, basement membrane extract (Trevigen, Gaithersburg, Md., USA) at 37° C. in a humidified 5.0% CO2 atmosphere. Medium was replaced three times per week. Cultures were maintained continuously for up to one year. Periodically, organoids were removed, under microscopic visualization, for propagation into new culture flasks or phenotypic and molecular analysis.
# (§1) Pharmacological inhibition of autophagy. […] CO-containing medium was replaced three times per week for a period of 6 months.
# (§2) Statistics. The Student T-test, two tailed with Welch's correction, was used to calculate the p-value, and to determine the statistical difference of epithelial outgrowth area before and after CQ treatment. P values <0.05 were considered significant. Standard deviation (SO) or standard error of the mean (SEM) was calculated for group comparisons. Wilcoxon rank sum was used to determine the differences between CQ treated and untreated groups for the reverse phase protein arrays. A p=0.1 was considered different for small sample sizes.
# [2] = test system: autophagy associated pathways; assay: Cell signaling pathway mapping by reverse phase protein microarray (RPMA) of DCIS spheroids pre and post chloroquine; assay type: cell-based, human; details: for autophagy associated signal pathway proteins/endpoints (Atg5, AKT, ERK, mTOR, IRS-1, p38 etc.) by RPMA: chloroquine phosphate 50 μM for 4 days, spheroids pre vs post treatment, n=3
# Method: as §1, §2
# [3] = test system: DCIS organoid culture spheroids; assay: Autophagosome lysosome imaging with LysoTracker Red in DCIS organoid culture; assay type: cell-based, human; details: chloroquine phosphate (50 μM) for 2 weeks
# [4] = test system: DCIS organoid cell cultures; assay: H&E histomorphology of chloroquine treated DCIS organoid cell cultures; assay type: cell-based, human; details: chloroquine phosphate (50 μM)
# Method: as §1
# Immunohistochemistry. Formalin fixed murine tissue or DCIS organoids were processed and paraffin embedded by commercial laboratories (AML Laboratories, Inc, Rosedale, Md. or Bi-Biomics, Nampa, Id.). Formalin fixed paraffin embedded (FFPE) tissue sections (5 μm or 1 μm thickness) mounted on positively charged glass slides were baked at 56° C. for 20 min., deparaffinized in xylene and rehydrated in a series of graded alcohols (100%, 95%, and 70%) with a final rinse in wash buffer (Dako, Carpinteria, Calif., USA). Antigen retrieval, when necessary, was performed with proteinase K or heat induced epitope retrieval. Immunostaining was performed on a Dako Autostainer with an Envision+HRP staining kit (Dako) per manufacturer's instructions. Stained tissue sections were counterstained with Hematoxylin (Dako), rinsed in distilled water and developed in Scott's Tap Water Substitute solution. Cover slips were applied using aqueous mounting medium (Paramount; Dako). Images were captured with an Olympus BX51 microscope using 4×, 10×, 20×, or 100× objectives.
structure (smiles),measurement,setting,value
"CCN(CC)CCCC(C)Nc1ccnc2cc(Cl)ccc12 (stereo not drawn) [chloroquine, N′-(7-chloroquinolin-4-yl)-N,N-diethyl-pentane-1,4-diamine]",explants that did not have any spheroids following chloroquine treatment,"[1]; case 09-148, chloroquine phosphate 50 μM",12 out of 14
same,spheroids after treatment,"[1]; case 09-301, n=3, 20.5±7.8 prior to treatment",no spheroids observed
same,ex vivo invasion of autologous stroma,[1]; chloroquine phosphate,suppressed ex vivo invasion of autologous stroma
same,"inhibition of spheroid outgrowth, CQ in combination with tamoxifen","[1]; cultured DCIS cells, in combination with anti-estrogen compound (tamoxifen)",pronounced effect
same,"number of spheroids generated post chloroquine treatment, majority of explants","[1]; two different patient DCIS cases, up to 113 spheroids per duct organoid untreated",zero
same,apoptosis (elevation of cleaved PARP Asp214),[2]; as early as 48 hours post treatment,induced apoptosis
same,"autophagy associated signal pathway proteins/endpoints (Atg5, AKT, ERK, mTOR, IRS-1, p38 etc.) by RPMA",[2]; listed as CQ,suppressed
same,"autophagy associated signal pathway proteins/endpoints (Atg5, AKT, ERK, mTOR, IRS-1, p38 etc.) by RPMA",[2]; listed as Chloroquine,markedly inhibited
same,"autophagy associated signal pathway proteins/endpoints (Atg5, AKT, ERK, mTOR, IRS-1, p38 etc.) by RPMA",[2]; listed as chloroquine phosphate,suppressed autophagy associated proteins
same,spheroid integrity and LysoTracker Red distribution,[3],"Dissociation of the spheroid, and diffuse accumulation of LysoTracker Red"
same,histology of organoid cultured in the presence of chloroquine for 6 months,[4]; 6 months,complete absence of cellular outgrowths and degenerated cells within the duct
same,histology of organoid 2 days post chloroquine treatment,[4]; 2 days,Degeneration of the invading DCIS cells within the organoid
